Data reported in publication PMC8880129, “Plant- and Bacteria-Derived Compounds with Anti-Philasterides dicentrarchi Activity” (Pathogens, 2022).
Where two headings read alike, the source gives them in different places.

Legend:
[1] = tested on: Philasterides dicentrarchi; assay: microbe, parasite or virus in culture; details: for mortality at 100 µM / inhibition at 100 µM / GI50: Philasterides dicentrarchi; for mortality at 100 µM / Ciliate Mortality 3 h (%): 3 h; for Growth Inhibition 24 h (%) / Ciliate Mortality 3 h (%): mean ± SD of three replicates
Experimental: P. dicentrarchi (isolate I1), obtained from an outbreak of scuticociliatosis in cultured turbot in Galicia, was routinely cultured at 18 °C in complete sterile L15 medium (Leibovitz, PAA Laboratories GmbH, 1% salinity, pH 7.2) containing 90 mg/L each of adenosine, cytidine, and uridine, 150 mg/L of guanosine, 5 g/L of glucose, 400 mg/L of L-α-phosphatidylcholine, 200 mg/L of Tween 80, 10% of heat-inactivated foetal bovine serum (FBS), and 10 mL/L of 100X antibiotic–antimycotic solution (100 units/mL of penicillin G, 0.1 mg/mL of streptomycin sulphate and 0.25 mg/mL of amphotericin B), as previously described. Alternatively, ciliates were cultured in seawater with autoclaved marine bacteria (10^6 cells/mL) supplied as food at 21 °C. The ciliates were cultured under normoxic conditions in tissue culture flasks fitted with vented caps that enabled aeration of the culture medium.
We tested the toxicity to P. dicentrarchi of 26 compounds of natural origin (Table 1). The compounds were prepared in 10 mM stock solutions in dimethyl sulfoxide (DMSO) and maintained at −20 °C until use. In addition, the Pseudomonas H6 lipopeptide surfactant (PS) was prepared, lyophilised and stored at −20 °C [37]. A stock solution of PS was prepared in distilled water (1000 ppm) and diluted in culture medium or seawater at the final concentrations used in each assay and sterile filtered (through 0.2 µm filters) before being added to the parasites or EPC cells.
The anticiliate activity was assayed as previously described, with minor modifications. Ciliates were concentrated by centrifugation at 650× g for 5 min and resuspended in a medium at the concentration required for the assays. All experiments were carried out in triplicate. Wells containing ciliates in a culture medium or seawater without the test compounds were assayed as negative controls. To rule out any possible effects of the solvent (DMSO), triplicate wells with a culture medium or seawater containing the highest concentration of DMSO used (up to 1%) were also included. […] In these assays, the compounds were diluted in 1 mL of culture medium or seawater and added to the wells of 24-well sterile culture plates containing 2.5 × 10^4 ciliates per well, at final concentrations of […], 6.25, 12.5, 25, 50, and 100 µM in culture medium. The effects of the compounds on the motility and morphology of the ciliates were monitored periodically (at 30 min, 1, 2, 3, 24, and 48 h) under an inverted optical microscope. Ciliates were considered dead when they lysed and were not motile. The results obtained are expressed as percentage mortality for each experimental group. To estimate the total number of ciliates per well, the ciliates were inactivated by adding 0.25% glutaraldehyde and counted in a haemocytometer under an optical microscope. The lowest dose of the selected compounds resulting in 100% ciliate mortality (LC100) was assessed at 1, 2, and 3 h after incubation of parasites with sample dilutions (from 0 to 100 μg/mL, in 10 μg intervals). The concentration that inhibited 50% of ciliate growth (GI50), in comparison with the control group, was calculated with Excel software (Microsoft Office; Microsoft, Redmond, WA, USA) by plotting the dose-response data (log dose-per cent of growth inhibition) and applying linear regression (y = mx + b) for data fitting. The values were then calculated from the equation log GI50 = (50 − b)/m, where m is the slope y1 − y2/x1 − x2, and b is the intercept of the line.

P. dicentrarchi = tested on: P. dicentrarchi; set-up: method as in PMID 15212284, PMID 21987103, PMID 27334368; details: cited from earlier work
[2] = read-out: Ciliate Mortality 3 h (%), 100 μM, 3 h, culture medium, mean ± SD of three replicates
[3] = 24 h, read-out: Growth Inhibition 24 h (%), 100 μM, 24 h, culture medium, mean ± SD of three replicates
[4] = 24 h, read-out: GI50 24 h (compound concentration that inhibited 50% of parasite growth)
[5] = 48 h, read-out: GI50 48 h (compound concentration that inhibited 50% of parasite growth)

Molecule	mortality at 100 µM [1, 2] [%]	inhibition at 100 µM [1, 3] [%]	Growth Inhibition 24 h (%) ([1]; 100 μM, 24 h, culture medium)	also measured
CC(=O)c1c(O)c(C)c(O)c2c1OC1=CC(=O)C(C(C)=O)C(=O)C12C (stereo not drawn) [Usnic acid]	38.3 ± 5.52	68.3 ± 3.34	–	–
COc1cc2c(cc1OC)-c1cc3ccc(OC)c(OC)c3c[n+]1CC2 [Palmatine chloride]	6.8 ± 0.59	28.5 ± 4.25	–	–
CCCCOC(=O)c1ccc(O)cc1 [Butyl 4-hydroxybenzoate]	52.9 ± 2.39	> 80	80.65 ± 2.42	GI50 [1, 4]: 43.9 ± 6.6 µM; GI50 [1, 5]: 29.2 ± 0.35 µM
CC12CCC(CC1)C(C)(C)O2 [Eucalyptol]	17 ± 8.42	35.6 ± 4.21	–	–
OCCc1ccccc1 [Phenylethyl alcohol]	2.3 ± 1.4	30.1 ± 4.63	–	–
O=C(/C=C/C=C/c1ccc2c(c1)OCO2)N1CCCCC1 [Piperine]	42.6 ± 9.1	> 80	89.04 ± 3.37	GI50 [1, 4]: 60.7 ± 6.31 µM; GI50 [1, 5]: 44 ± 1.83 µM
O=c1cc(-c2ccccc2)oc2cc(O)ccc12 [7-hydroxyflavone]	10 ± 1.52	67.4 ± 2.4	–	–
O=c1c2cc(O)c(O)cc2oc2cc(O)c([C@@H]3O[C@H](CO)[C@@H](O)[C@H](O)[C@H]3O)c(O)c12 [mangiferin]	–	–	–	efficacy against P. dicentrarchi (P. dicentrarchi): effective
C[C@H]1C(=O)O[C@@H]2CCN3CC=C(COC(=O)[C@](C)(O)[C@]1(C)O)[C@H]23 [Monocrolatine]	–	–	9.8 ± 2.11	Ciliate Mortality 3 h (%) ([1]; 100 μM, culture medium): 6.61 ± 1.06%
O=C(O)CCCC[C@@H]1SC[C@@H]2NC(=O)N[C@@H]21 [Biotin]	0	37 ± 0.72	–	–
CC1(C)CCC[C@]2(C)[C@H]3CC(=O)O[C@]3(C)CC[C@@H]12 [Sclareolide]	–	–	71.67 ± 6.92	–
CC12CCC(CC1=O)C2(C)C (stereo not drawn) [Camphor (1r)]	–	–	77.42 ± 2.7	Ciliate Mortality 3 h (%) ([1]; 100 μM, culture medium): 0%
CCCCCCc1ccc(O)cc1O [4-hexylresorcinol]	> 90	100	–	Ciliate Mortality 3 h (%) ([1]; 100 μM, culture medium): 95.3 ± 4.05%; parasites killed after 24 h ([1]; 100 μM, 24 h, culture medium): killed all the parasites; GI50 [1, 4]: 63.3 ± 3.61 µM; GI50 [1, 5]: 40.8 ± 0.11 µM
O=C(O)c1ccccc1 [Benzoic acid]	–	–	–	mortality at 100 µM ([1]; read-out: Ciliate Mortality 3 h (%)): 1.64 ± 0.56%; inhibition at 100 µM ([1]; 24 h, read-out: Growth Inhibition 24 h (%)): 17.4 ± 1.2%
CC(O)C(=O)[O-].[Na+] (stereo not drawn) [Sodium lactate]	–	–	28.33 ± 3.93	Ciliate Mortality 3 h (%) ([1]; 100 μM, culture medium): 13.76 ± 4.1%
C[C@@H]1CC[C@H]2C(C)(C)[C@H]3C[C@@]12CC[C@@]3(C)O [Cedrol]	64.2 ± 3.7	66.67 ± 0.33	–	–
COc1cc(/C=C/C(=O)CC(=O)/C=C/c2ccc(O)c(OC)c2)ccc1O [curcumin]	–	–	–	efficacy against P. dicentrarchi (P. dicentrarchi): effective
C=CCSCC=C [Diallyl sulfide]	22.3 ± 5.1	38.8 ± 7.32	–	–
O=c1ccc2cc(O)c(O)cc2o1 [Esculetin]	8.2 ± 5.32	15.3 ± 6.32	–	–
Garlicin [Garlicin 80%]	–	–	42.47 ± 5.62	–
O=C(/C=C/c1ccc(O)c(O)c1)O[C@H](Cc1ccc(O)c(O)c1)C(=O)O [Rosmarinic acid]	27.1 ± 7.27	35 ± 5.51	–	–
O=c1ccc2ccccc2o1 [Coumarin]	8 ± 5.9	23.5 ± 4.12	–	–
CC1=NCCc2c1[nH]c1cc(O)ccc21.Cl.O.O [Harmalol hydrochloride dihydrate]	–	–	40.08 ± 4.9	Ciliate Mortality 3 h (%) ([1]; 100 μM, culture medium): 4.8 ± 1.12%
O=c1ccc2ccc(O)cc2o1 [Umbelliferone]	2.9 ± 1.89	44.9 ± 7.23	–	–
C[C@H]1[C@H]2CC[C@H]3[C@@H]4CC=C5C[C@@H](N(C)C)CC[C@]5(C)[C@H]4CC[C@]23CN1C [Conessine]	50.2 ± 4.5	> 80	84.42 ± 2.42	GI50 [1, 4]: 12 ± 0.8 µM; GI50 [1, 5]: 11.2 ± 0.65 µM
O=C(O[C@@H]1Cc2c(O)cc(O)cc2O[C@@H]1c1cc(O)c(O)c(O)c1)c1cc(O)c(O)c(O)c1 [epigallocatechin gallate]	–	–	–	efficacy against P. dicentrarchi (P. dicentrarchi): effective
